These are literature values, as cited in patent US6645390B1, “Composition and method for treating hydrocarbon fires” (Hazard Control Technologies, Inc., priority 1994, dated 2003).

On to isononanoic acid, for which the solubility in water result is listed as “slightly soluble”. For the same substance, under “at the concentration of its slight solubility in water”, the pH result is reported as “about 3.5”.
